These results are taken from patent publication US10544143B2, “4-azaindole compounds” (BRISTOL-MYERS SQUIBB COMPANY, priority 2017, dated 2020).

Assay [1] addresses human TLR8 (Homo sapiens (Human), UniProt Q9NR97). Briefly: TLR8 inhibition reporter assay (HEK-Blue SEAP).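 Further: SEAP driven by IFN-β minimal promoter carrying NF-κB and AP-1 sites, compounds dosed 0.05 nM to 50 µM for 22 h, inhibition scaled between agonist-plus-DMSO and reference-inhibitor wells.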 The following applies: read-out: TLR8 IC50; HEK-Blue cells overexpressing human TLR8, SEAP reporter, R848 15.9 μM. In general terms: A reporter such as luciferase makes a cellular process visible.
The target in assay [2] is human TLR7 (Homo sapiens (Human), UniProt Q9NYK1). Briefly: TLR7 inhibition reporter assay (HEK-Blue SEAP). The class given is cell-based. The note with it: HEK-Blue cells overexpressing human TLR7, SEAP reporter, gardiquimod 7.5 μM.
Sequence of human TLR7 (Q9NYK1 27-1049): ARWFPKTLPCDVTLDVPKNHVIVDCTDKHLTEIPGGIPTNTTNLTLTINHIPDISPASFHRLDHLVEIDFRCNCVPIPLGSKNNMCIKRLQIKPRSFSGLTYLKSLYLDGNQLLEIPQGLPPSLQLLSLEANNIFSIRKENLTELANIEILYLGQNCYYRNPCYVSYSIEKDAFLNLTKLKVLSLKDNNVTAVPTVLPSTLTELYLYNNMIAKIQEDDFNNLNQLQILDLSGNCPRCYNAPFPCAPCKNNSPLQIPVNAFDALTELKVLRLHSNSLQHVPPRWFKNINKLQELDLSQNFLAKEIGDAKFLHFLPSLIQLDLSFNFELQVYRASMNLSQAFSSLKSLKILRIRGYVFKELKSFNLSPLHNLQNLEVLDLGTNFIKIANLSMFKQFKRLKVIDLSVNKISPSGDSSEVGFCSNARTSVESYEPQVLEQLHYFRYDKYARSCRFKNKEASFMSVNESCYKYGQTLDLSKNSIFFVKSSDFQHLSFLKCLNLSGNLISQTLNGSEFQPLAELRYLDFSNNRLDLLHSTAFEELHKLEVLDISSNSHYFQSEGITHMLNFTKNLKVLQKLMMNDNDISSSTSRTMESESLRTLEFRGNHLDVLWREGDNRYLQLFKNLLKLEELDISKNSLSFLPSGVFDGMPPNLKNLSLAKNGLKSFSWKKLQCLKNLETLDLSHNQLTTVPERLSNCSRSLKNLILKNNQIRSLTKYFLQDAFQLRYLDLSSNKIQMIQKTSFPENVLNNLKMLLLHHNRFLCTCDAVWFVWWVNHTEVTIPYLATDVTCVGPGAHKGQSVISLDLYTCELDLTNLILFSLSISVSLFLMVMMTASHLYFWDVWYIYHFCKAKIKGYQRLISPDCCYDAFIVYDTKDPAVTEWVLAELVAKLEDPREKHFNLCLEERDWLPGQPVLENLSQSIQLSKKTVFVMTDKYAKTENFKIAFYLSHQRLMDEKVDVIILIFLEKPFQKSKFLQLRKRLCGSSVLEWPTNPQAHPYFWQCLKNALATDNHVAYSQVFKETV
For assay [3], the target named is human TLR9 (Homo sapiens (Human), UniProt Q9NR96). Kind of assay: TLR9 inhibition reporter assay (HEK-Blue SEAP).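 Further: SEAP driven by an IFN-β minimal promoter with NF-κB and AP-1 sites, read after 22 h, compounds dosed 0.05 nM–50 µM, inhibition scaled between agonist plus DMSO and reference-inhibitor wells.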 The note with it: read-out: TLR9 IC50; HEK-Blue cells overexpressing human TLR9, SEAP reporter, ODN2006 5 nM.
Sequence of human TLR9 (Q9NR96 26-1032): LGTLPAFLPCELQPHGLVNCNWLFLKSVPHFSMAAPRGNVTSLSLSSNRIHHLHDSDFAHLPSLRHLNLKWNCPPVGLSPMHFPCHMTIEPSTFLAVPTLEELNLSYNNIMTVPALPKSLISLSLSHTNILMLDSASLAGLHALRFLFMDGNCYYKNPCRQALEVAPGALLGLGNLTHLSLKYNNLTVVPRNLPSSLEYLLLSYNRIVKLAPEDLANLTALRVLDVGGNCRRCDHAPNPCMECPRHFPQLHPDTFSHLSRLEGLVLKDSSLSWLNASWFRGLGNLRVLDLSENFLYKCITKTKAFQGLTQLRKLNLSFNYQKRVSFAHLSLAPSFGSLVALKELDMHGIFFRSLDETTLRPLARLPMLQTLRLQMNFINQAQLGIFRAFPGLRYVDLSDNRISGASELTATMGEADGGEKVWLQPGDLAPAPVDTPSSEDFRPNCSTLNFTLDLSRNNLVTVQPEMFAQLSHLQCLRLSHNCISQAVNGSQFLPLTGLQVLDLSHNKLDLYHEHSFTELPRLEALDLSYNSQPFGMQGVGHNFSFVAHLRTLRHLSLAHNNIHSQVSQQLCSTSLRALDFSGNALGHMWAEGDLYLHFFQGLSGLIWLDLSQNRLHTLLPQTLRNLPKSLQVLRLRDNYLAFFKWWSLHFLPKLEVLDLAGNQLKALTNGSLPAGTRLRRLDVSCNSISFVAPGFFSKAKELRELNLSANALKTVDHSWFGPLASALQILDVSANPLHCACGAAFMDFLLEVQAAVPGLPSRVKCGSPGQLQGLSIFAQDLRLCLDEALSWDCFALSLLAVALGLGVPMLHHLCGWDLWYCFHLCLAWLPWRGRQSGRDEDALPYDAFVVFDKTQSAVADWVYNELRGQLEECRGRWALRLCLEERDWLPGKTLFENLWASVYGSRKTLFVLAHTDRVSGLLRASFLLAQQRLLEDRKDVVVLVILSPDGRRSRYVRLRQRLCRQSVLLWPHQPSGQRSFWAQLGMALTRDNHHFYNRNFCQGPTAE

Sequence of human TLR8 (Q9NR97 27-1041): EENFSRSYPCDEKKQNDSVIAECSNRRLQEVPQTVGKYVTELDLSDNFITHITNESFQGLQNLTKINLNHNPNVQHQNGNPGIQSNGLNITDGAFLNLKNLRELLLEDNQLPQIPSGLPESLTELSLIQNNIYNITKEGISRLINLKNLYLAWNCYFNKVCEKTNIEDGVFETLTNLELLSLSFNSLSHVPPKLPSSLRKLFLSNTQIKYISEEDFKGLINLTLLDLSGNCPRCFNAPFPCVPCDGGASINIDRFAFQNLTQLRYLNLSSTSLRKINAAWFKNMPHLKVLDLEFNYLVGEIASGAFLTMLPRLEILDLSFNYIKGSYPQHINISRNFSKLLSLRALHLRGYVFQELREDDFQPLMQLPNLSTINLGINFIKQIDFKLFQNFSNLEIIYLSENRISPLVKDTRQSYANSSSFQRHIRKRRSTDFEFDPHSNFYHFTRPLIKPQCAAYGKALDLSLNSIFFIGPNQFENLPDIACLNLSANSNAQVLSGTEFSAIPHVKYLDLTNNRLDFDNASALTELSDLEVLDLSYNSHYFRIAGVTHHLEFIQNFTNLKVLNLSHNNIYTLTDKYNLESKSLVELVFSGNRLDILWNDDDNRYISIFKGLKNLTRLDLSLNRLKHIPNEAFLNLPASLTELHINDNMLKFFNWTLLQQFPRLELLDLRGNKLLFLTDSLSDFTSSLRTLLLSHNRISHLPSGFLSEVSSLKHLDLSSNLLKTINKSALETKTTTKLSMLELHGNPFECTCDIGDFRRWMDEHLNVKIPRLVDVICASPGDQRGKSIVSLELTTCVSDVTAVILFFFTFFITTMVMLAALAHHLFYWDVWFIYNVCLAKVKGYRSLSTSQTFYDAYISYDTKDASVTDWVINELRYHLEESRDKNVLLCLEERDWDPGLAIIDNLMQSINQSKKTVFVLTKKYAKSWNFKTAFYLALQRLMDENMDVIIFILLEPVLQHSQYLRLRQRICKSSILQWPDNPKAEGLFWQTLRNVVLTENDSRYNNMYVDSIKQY

`Cc1c(-c2[nH]c3ccc(CCC4CN(CC(C)(C)O)C4)nc3c2C(C)C)cn2ncnc2c1C` [Example 701]: the results for the IC50 in assay [1], in assay [2] and in assay [3] were 15 nM, 49 nM and 1750 nM, respectively.

As to `Cc1c(-c2[nH]c3ccc(CCC4CN(CC5(C)COC5)C4)nc3c2C(C)C)cn2ncnc2c1C` [Example 702], the IC50 (commonly the concentration that inhibits the measured activity by half) in assay [1] was determined as 14 nM; in assay [2], 41 nM; in assay [3], 2230 nM.

`CC(C)c1c(-c2cn(C)c3ncccc23)[nH]c2ccc(CCC3CN(C(=O)CN(C)C)C3)nc12` [Example 703]: the results for the IC50 in assay [1], in assay [2] and in assay [3] were 16 nM, 8.9 nM and 326 nM, respectively.

In the case of `CC(C)c1c(-c2cn(C)c3ncccc23)[nH]c2ccc(CCC3CN(Cc4c[nH]nn4)C3)nc12` [Example 704], the results for the IC50 in assay [1], in assay [2] and in assay [3] were 13 nM, 11 nM and 166 nM, respectively.

With `Cc1c(-c2[nH]c3ccc(CCC4CN(Cc5c[nH]nn5)C4)nc3c2C(C)C)cn2ncnc2c1C` [Example 705], the IC50 came out at 15 nM in assay [1], 18 nM in assay [2] and 655 nM in assay [3].

Turning to `COc1cc(-c2[nH]c3ccc(CCC4CN(CC5(C)COC5)C4)nc3c2C(C)C)cn2ncnc12` [Example 706], the IC50 was 18 nM in assay [1], 8.5 nM in assay [2] and 1020 nM in assay [3].

As to `COc1cc(-c2[nH]c3ccc(C4CCC(NC5CCOCC5)C4)nc3c2C(C)C)cn2ncnc12` (stereo not drawn) [Example 707], the IC50 in assay [1] turned out to be 5.3 nM; in assay [2], 1.5 nM; in assay [3], 1410 nM.

On to `COc1cc(-c2[nH]c3ccc(C4CCC(N(CC(N)=O)CC(N)=O)C4)nc3c2C(C)C)cn2ncnc12` (stereo not drawn) [Example 708], for which the IC50 in assay [1] was 280 nM; in assay [2], 12 nM; in assay [3], above 50000 nM.

As for `COc1cc(-c2[nH]c3ccc(C4CCC(NCCS(C)(=O)=O)C4)nc3c2C(C)C)cn2ncnc12` (stereo not drawn) [Example 709], the IC50 in assay [1] was above 3120 nM; in assay [2], 2330 nM; in assay [3] it was above 50000 nM.

For `COc1cc(-c2[nH]c3ccc(C4CCC(NC5CCOCC5)C4)nc3c2C(C)C)cn2ncnc12` (stereo not drawn) [Example 710], the IC50 in assay [1] turned out to be 3.2 nM; in assay [2], 2 nM; in assay [3], 4660 nM.

Take `COc1cc(-c2[nH]c3ccc(C4CCC(NCC5(C)COC5)C4)nc3c2C(C)C)cn2ncnc12` (stereo not drawn) [Example 711]: the IC50 came to 2.9 nM in assay [1], 2 nM in assay [2] and 1700 nM in assay [3].

Take `COc1cc(-c2[nH]c3ccc(C4CCC(NC(=O)CN(C)C)C4)nc3c2C(C)C)cn2ncnc12` (stereo not drawn) [Example 712]: the 50% inhibitory concentration (IC50) in assay [1] is 11 nM; in assay [2], 1.9 nM; in assay [3] it was 3140 nM.

Turning to `COc1cc(-c2[nH]c3ccc(C4CCC(N(CC#N)CC#N)C4)nc3c2C(C)C)cn2ncnc12` (stereo not drawn) [Example 713], the IC50 in assay [1] came to 28 nM; in assay [2], 6.2 nM; in assay [3], 4880 nM.

With `COc1cc(-c2[nH]c3ccc(C4CCC(NC(=O)C5CCN(C)CC5)C4)nc3c2C(C)C)cn2ncnc12` (stereo not drawn) [Example 714], the IC50 in assay [1] came to 9.3 nM; in assay [2], 1.8 nM; in assay [3] it was 203 nM.

For `COc1cc(-c2[nH]c3ccc(C4CCC(NC5COC5)C4)nc3c2C(C)C)cn2ncnc12` (stereo not drawn) [Example 715], the IC50 in assay [1] amounted to 11 nM; in assay [2] it was 1.7 nM; in assay [3], 8710 nM.

As for `COc1cc(-c2[nH]c3ccc(C4CCC(NCC#N)C4)nc3c2C(C)C)cn2ncnc12` (stereo not drawn) [Example 716], the IC50 is 6.7 nM in assay [1], 0.74 nM in assay [2] and 2530 nM in assay [3].

Take `COc1cc(-c2[nH]c3ccc(C4CCC(N(CCS(C)(=O)=O)CCS(C)(=O)=O)C4)nc3c2C(C)C)cn2ncnc12` (stereo not drawn) [Example 717]: the IC50 in assay [1] was determined as 1100 nM; in assay [2], 1060 nM; in assay [3], 2520 nM.

`COc1cc(-c2[nH]c3ccc(C4CCC(NCC5(C)COC5)C4)nc3c2C(C)C)cn2ncnc12` (stereo not drawn) [Example 718]: the half-maximal inhibitory concentration (IC50) in assay [1] came to 3.6 nM; in assay [2] it was 9.6 nM; in assay [3] it was 6210 nM.
